For experiment [1], the system named is hNIS gene regions P (promoter), L (leader), C (coding). As to the kind of experiment: Methylation-specific PCR of hNIS gene regions in treated cell lines. On Methylation Status by Region P: key: mRNA expression (hNIS, TTF-1, Pax-8): +, positive; −, negative. In kind it is cell-based, human. On the procedure:
(§1) Cell lines, for evaluation of iodide-uptake and hNIS expression, were grown in phenol-red-free RPMI 1640 with 5% fetal bovine serum (FBS), 100 nM sodium selenite and 0.1 nM bovine TSH (basal medium) (20). They were plated at a density of 3–5×10^4 cells/9.4 cm^2, in triplicate in basal medium, and grown for 2–3 days at 37° C. in 5% CO2. They were treated with dimethylsulfoxide (DMSO, 25 μM daily for 3 days), sodium butyrate (0.5 or 1.0 mM), phenylacetate (pH 7.0, 5 or 10 mM) or 5-azacytidine (0.5 or 1.0 μM, in 25 μM DMSO, daily for 3 days) until control cells were 80% confluent (3–4 days), then changed to fresh basal medium and grown for an additional 24 hrs.
This method utilizes PCR primer pairs to distinguish methylated from unmethylated DNA in bisulfite-modified target DNA, in which bisulfite converts unmethylated cytosines to uracil (23,24). Genomic DNAs, from normal and tumoral human thyroid tissues and cell lines, were isolated by standard techniques (21) and 1.0 μg aliquots were denatured by NaOH (10 min at 37° C.), then treated with 10 mM hydroquinone and 3.0 M sodium bisulfite (pH 5.0 under mineral oil for 16 hrs at 50° C.). Modified DNA was purified on a resin column (Qiagen) and further treated with 0.3 N NaOH for 5 min prior to ethanol precipitation. The PCR mixture contained 16.6 mM ammonium sulfate, 67 mM Tris-HCl (pH 8.8), 6.7 mM MgCl2, 10 mM β-mercaptoethanol, 1.25 mM dNTPs, 0.2 μL TaqStart antibody, 1 U AmpliTaq DNA polymerase, 10 pmoles each of sense and antisense methylation-specific primers, and […] of bisulphite-modified DNA target. Primers used for analysis of the hNIS promoter CpG island methylation were selected for cytosine-rich regions, containing CpG dinucleotides near the 3′ end of the primers, hNIS-MET-P (sense, 5′ to 3′, TTAGGTTTGGAGGCGGA GTCGC (SEQ ID NO. 7) and antisense, 5′ to 3′, ACCGACTATCTATCCCT CTCCCTAAACG) (SEQ ID NO. 8) for a 143 bp product from methylated DNA and hNIS-UNMET-P (sense, 5′ to 3′, […] GAGTTGT (SEQ ID NO. 9) and antisense, 5′ to 3′, […] CCTAAACA) (SEQ ID NO. 10) for a 151 bp product from unmethylated genomic DNA. Additional sets of primers were similarly designed to analyze further downstream elements. They were: hNIS-MET-L (sense, […] (SEQ ID NO. 11) and antisense, GACCT CCATAAAAACGAATACG) (SEQ ID NO. 12) for a 265 bp product, with hNIS-UNMET-L (sense, […] (SEQ ID NO. 13), and antisense, […]) (SEQ ID NO. 14), for a 275 bp product, hNIS-MET-C (sense, […] (SEQ ID NO. 15) and antisense, […]) (SEQ ID NO. 16) for a 242 bp product, and hNIS-UNMET-C (sense, […] (SEQ ID NO. 17), and antisense, […]) (SEQ ID NO. 18), for a 252 bp product. The amplification conditions were: Taq polymerase activation at 95° C. for 5 min, 40 cycles of: denaturation at 94° C. for 20 s, annealing at 60° C. for 30 s and polymerization at 72° C. for 30 s. MS-PCR products were resolved by agarose gel electrophoresis and visualized by ethidium bromide staining and UV transillumination.

A further experiment has as its system Pax-8 mRNA. In words: Pax-8 mRNA expression by RT-PCR in treated cell lines. Further: key: mRNA expression (hNIS, TTF-1, Pax-8): +, positive; −, negative. The experiment is classed as cell-based, human. On the procedure:
as §1
Total RNA and genomic DNA from: normal human thyroid, thyroid tumors, and cell lines (treated with agents described above), were isolated by the acid-guanidinium-phenol-chloroform method (21). All surgical samples were snap-frozen and stored at −80° C. until processed by homogenization in Trizol reagent (Life Technologies, Gaithersburg, Md.) while still frozen. Complementary DNA (cDNA) was synthesized from 1.0 μg of total RNA using MMLV reverse transcriptase (RT) with random-hexamer primers (Clontech, Palo Alto, Calif.). Each 50 μL polymerase chain reaction (PCR) vessel contained: 60 mM Tris HCl, pH 9.0, 15 mM ammonium sulfate, 3.5 mM MgCl2 (1.5 mM for hTTF-1), 250 μM dNTPs (Boehringer-Mannheim, Indianapolis, Ind.), 0.2 μM each primer pair, 1 U AmpliTaq DNA polymerase (Perkin-Elmer, Norwalk, Conn.), 0.2 μg TaqStart Antibody (Clontech) and 3% cDNA. β-actin amplification (primers, Stratagene, La Jolla, Calif.) confirmed cDNA integrity, purity, and template equivalence for semiquantification. PCR primers (upstream 5′ to 3′/downstream 5′ to 3′, in all cases) used for amplification were, for hNIS (5), CTGCCCCAGACCAGTACAT GCC (SEQ ID NO. 1)/[…] (SEQ ID NO. 2) (to amplify a coding region spanning four introns (4) yielding a 303 bp product from cDNA) and for Pax-8, […] (SEQ ID NO. 3)/[…] (SEQ ID NO. 4)((22) to amplify a 329 bp product). Amplification conditions for hNIS and Pax-8 were: denaturation (95° C.×5 min); 40 cycles of 20 sec at 95° C. and 60 sec at 68° C.; followed by extension at 72° C. for 3 min. The hTTF-1 product was amplified with intron spanning primers, […] (SEQ ID NO. 5)/[…] (SEQ ID NO. 6), which amplify a 263 bp fragment. The conditions were: 95° C. for 5 min; 45 cycles of 95° C. for 20 sec, 60° C. for 60 sec, and 72° C. for 30 sec; followed by extension at 72° C. for 3 min. The RT-PCR products were resolved on 2% agarose gels and visualized by ethidium bromide staining.

Where [2] appears, read: NPA'87, high: AzaC 1.0 μM, NaB 1.0 mM.
Setting [3] is: KAT-5, high: AzaC 1.0 μM, PhAc 10 mM.

In the case of `CCCC(=O)[O-].[Na+]` [NaB, sodium butyrate], in experiment [1] (KAT-10, high: NaB 1.0 mM), the “Methylation Status by Region C” value is “+”, the “Methylation Status by Region L” value is recorded as “+” and the “Methylation Status by Region P” value was “−”. In experiment [1] (setting [2]), the “Methylation Status by Region C” value is listed as “+”, the “Methylation Status by Region L” value is given as “+” and the “Methylation Status by Region P” value is listed as “−”. The “effect on baseline methylation patterns in all three regions” value in experiment [1] (NPA'87 and KAT-10) is recorded as “failed to demonstrate effects on altering baseline methylation patterns”. Also, the “Pax-8 mRNA” value in the experiment on Pax-8 mRNA (KAT-10, high: NaB 1.0 mM) is reported as “+”. Moreover, the “Pax-8 mRNA” value in the experiment with Pax-8 mRNA (setting [2]) is listed as “+”.
Turning to `Nc1ncn([C@@H]2O[C@H](CO)[C@@H](O)[C@H]2O)c(=O)n1` [AzaC, 5-azacytidine], in experiment [1] (KAK-1, KAT-5, KAT-10 and NPA'87 (all four cell lines)), the “methylation at the L and C regions after treatment” value is on record as “decreased methylation”. The “Methylation Status by Region C” value in experiment [1] (KAK-1, high: AzaC 1.0 μM) is given as “−”; in experiment [1] (KAK-1, low: AzaC 0.5 μM), “−”; in experiment [1] (setting [3]) it was “−”; in experiment [1] (KAT-10, low: AzaC 0.5 μM), “−”; in experiment [1] (setting [2]), “−”. The “Methylation Status by Region L” value in experiment [1] (KAK-1, high: AzaC 1.0 μM) is on record as “−”; in experiment [1] (KAK-1, low: AzaC 0.5 μM) it was “−”; in experiment [1] (setting [3]), “−”; in experiment [1] (KAT-10, low: AzaC 0.5 μM), “−”; in experiment [1] (setting [2]), “−”. The “Methylation Status by Region P” value in experiment [1] (KAK-1, high: AzaC 1.0 μM) is listed as “−”; in experiment [1] (KAK-1, low: AzaC 0.5 μM), “−”; in experiment [1] (setting [3]), “−”; in experiment [1] (KAT-10, low: AzaC 0.5 μM), “−”; in experiment [1] (setting [2]) it was “−”. For the same compound, the “susceptibility to demethylation effects in the C region” value in experiment [1] (KAT-5 and KAT-10 cells, C region compared with L region) was “less than that of the L region”. Further, the “effect on methylation status of the P region” value in experiment [1] (MRO87, WRO82 and KAT-7) was “did not affect the baseline demethylated status”. Also, the “demethylation of region C in response to treatment” value in experiment [1] (MRO87, WRO82 and KAT-7, except minimal unmethylated product for WRO82) is given as “did not become demethylated”. In addition, the “Pax-8 mRNA” value is on record as “+” with Pax-8 mRNA (KAK-1, high: AzaC 1.0 μM); “+” in the experiment on Pax-8 mRNA (KAK-1, low: AzaC 0.5 μM); “+” in the experiment on Pax-8 mRNA (setting [3]); “+” with Pax-8 mRNA (KAT-10, low: AzaC 0.5 μM); “+” in the experiment with Pax-8 mRNA (setting [2]).

Source of the values: patent US7029879B1, “Iodine uptake restoration in thyroid cancer” (University of Kentucky Research Foundation, priority 1999, dated 2006).
